Test results: patent publication US6017886A, “Use of NDF peptide as growth factor for sensory epithelium” (Amgen Inc., priority 1999, dated 2000)

Tests used:
Assay type in all cases: cell-based
[1] = test system: utricular epithelium from seven day-old rats; assay: BrdU incorporation (mitogenic activity) in primary culture of infant rat utricular sensory epithelium; details: for number of BrdU-positive nuclei per piece of epithelium: 50 ng/ml, seventy-two hours culture, infant (seven day-old) rat epithelium, control 50±7
Protocol: (§1) Sensory edithelial cells obtained from utricles in the inner ear of both seven day-old (infant) rats and six week-old (adult) rats were isolated with the use of thermolysin treatment; see Corwin et al., Abstracts of the Association for Research in Otolaryngology, Volume 18, page 87 (1995). All edges were trimmed away and the central portion of the epithelium was cut into quarters. Epithelial cells from the infant rats were cultured in DMEM/F12 with 10% FBS (Gibco BRL, Grand Island, N.Y.), and 3 micrograms per milliliter (μg/ml) of mitosis tracer BrdU (Aldrich Chemicals, Milwaukee, Wis.) for seventy-two hours, with or without 50 nanograms per milliliter (ng/ml) of the peptide of SEQ ID NO: 1 or 50 ng/ml of recombinant derived FGF-10, recombinant derived FGF-16, recombinant derived ciliary-derived neurotrophic factor (CNTF), recombinant derived neurotrophic growth facor (NGF), recombinant derived glial-derived neurotrophic factor (GDNF), recombinant derived keratinocyte growth factor (KGF), or a control (no growth factor present). The experiment was ended by fixing in 4% paraformaldehyde for one hour.
After several washes, the explants were immunostained for calretinin (a vestibular organ hair cell marker) using rabbit antiserum (SWant Swiss Antibodies, Belinzona, Switzerland), diluted 1:10,000. The secondary antibody was goat anti-rabbit immunoglobulin conjugated to biotin, diluted 1:1,000. Extensive washes were followed by incubating the explants with egg white avidin conjugated to Cy3, diluted 1:1,000. The explants were fixed again with paraformaldehyde as described above, then processed for BrdU immunostaining (a measure of cell proliferation) using standard immunostaining protocols. The mouse monoclonal ant-BrdU antibody was obtained from Caltag Laboratories of San Franscisco, Calif. The secondary antibody, a goat anti-mouse conjugated to FITC, was obtained from Antibodies, Inc. of Davis, Calif.

[2] = test system: utricular cell line derived from a transgenic mouse; assay: Cell proliferation by ELISA for BrdU in established utricular cell line; details: 50 ng/ml added twenty-four hours prior to fixation, BrdU final sixteen hours
Protocol: An established utricular cell line was derived from a transgenic mouse, using the procedure described by Gu et al. in Abstracts of the Association for Research in Otolaryngology, Volume 21, page 16 (1998). The cell line was cultured at 37° C. for three days in DMEM/F12 (Gibco BRL), containing N2 supplement (Sigma Chemical Company, St. Louis, Mo.) in a proportion of 1:100, under conditions restricting oncogene expression. For the treated group, fifty nanograms per milliliter of the peptide of SEQ ID NO: 1 were added twenty-four hours prior to fixation. Three micrograms per milliliter of BrdU (Aldrich Chemicals) were added for the final sixteen hours.
Cell proliferation was measured by ELISA for BrdU. Briefly, cells were fixed with 4% paraformaldehyde (Amersham, Life Sciences, Cleveland, Ohio) for one hour at room temperature. After treatment with 2N HCl for twenty minutes, the cells were washed and then sequentially incubated for one hour with a monocolonal antibody against BrdU (Caltag Laboratories) and horse anti-mouse antibody conjugated to biotin (Vector Laboratories, Burlingame, Calif.). After washing, the cells were further incubated with Europium streptavidin (Wallac Inc., Gaithersburg, Md.) diluted 1:1,000 and processed for time-resolved fluorescence in accordance with the manufacturer's recommendations. The signal was read on a Victor 1420 multi-label counter (Wallac Inc.).

[3] = test system: adult rat utricular epithelium; assay: BrdU incorporation (mitogenic activity) in primary culture of adult rat utricular sensory epithelium; details: adult (six week-old) rat, thirteen days culture, factor added for the last five days, BrdU last two days
Protocol: as §1
For the adult rats, the total time for cell culture was thirteen days, with the peptide of SEQ ID NO: 1 or other growth factor being added for the last five days and the BrdU ([…]) for the last two days. The experiment was ended as above by fixing the explants in paraformaldehyde. […]

[4] = test system: young rat utricular sensory epithelial cells; assay: Comparison with other NDF/heregulins, BrdU-positive nuclei in primary culture; details: 50 ng/ml, FIG. 5
Protocol: as §1
After several washes, the explants were immunostained for calretinin (a vestibular organ hair cell marker) using rabbit antiserum (SWant Swiss Antibodies, Belinzona, Switzerland), diluted 1:10,000. […]

FGF-16: recombinant derived FGF-16 [reference compound]
number of BrdU-positive nuclei per piece of epithelium [1]: 100±16

NGF: recombinant derived neurotrophic growth facor (NGF) [reference compound]
number of BrdU-positive nuclei per piece of epithelium [1]: 50±9

SHLVKCAEKEKTFCVNGGECFMVKDLSNPSRYLCKCQPGFTGARCQNYVMAS [SEQ ID NO: 1, hybrid form derived from the EGF-like domains of NDF-α and NDF-β]
ELISA reading (BrdU) relative to control (untreated) group [2]: 1.7 times
number of BrdU-positive nuclei per piece of epithelium [1]: 397±33
presence of BrdU-positive nuclei in supporting cells versus control (untreated) cells ([1]; infant rat sensory epithelium primary culture, FIGS. 4A and 4B): very noticeable increase
increase in proliferation of adult rat sensory epithelial cells over the control group [3]: 32.5 fold
increase in induction of cell proliferation over the control [4]: 29 fold
